Eleven compounds from ChEMBL document CHEMBL5584237, “Design, synthesis, biological evaluation, and in silico studies of novel pyridopyridine derivatives as anticancer candidates targeting FMS kinase” (Eur J Med Chem, 2024) can be followed below.

A short description of data set [1]: Cytotoxicity against human WI-38 cells assessed as reduction in cell growth measured after 48 hrs by MTT assay. In kind it is toxicity, cell-based.
Data set [2] in a line: Cytotoxicity against human HS27 cells assessed as reduction in cell growth measured after 48 hrs by MTT assay. Format: toxicity, cell-based.
Data set [3] has as its target T1, Macrophage colony-stimulating factor 1 receptor (Homo sapiens, UniProt P07333). In words: Inhibition of FMS (unknown origin) using myelin basic protein as substrate measured after 40 mins in presence of [gamma-33P]-ATP by scintillation counting method.
The next data set concerns HepG2. The data set can be described thus: cells. Conditions: Homo sapiens, HepG2, 48 h.
In data set [4] the test system is Hep 3B2. In words: cells. Conditions: Homo sapiens, Hep3B, 48 h.
A further data set relates to CCRF-CEM. The data set can be described thus: Antiproliferative activity against human CCRF-CEM cells assessed as cell growth inhibition. In kind it is functional.
In the next data set the test system is K562. In words: Antiproliferative activity against human K562 cells assessed as cell growth inhibition. In kind it is functional.
The test system of a further data set is MOLT-4. In words: Antiproliferative activity against human MOLT-4 cells assessed as cell growth inhibition. In kind it is functional.
The test system of the next data set is SR. The data set can be described thus: Antiproliferative activity against human SR cells assessed as cell growth inhibition. Format: functional.
The next data set relates to A549. The data set can be described thus: Antiproliferative activity against human A549 cells assessed as cell growth inhibition. In kind it is functional.
For a further data set, the system named is NCI-H460. In words: Antiproliferative activity against human NCI-H460 cells assessed as cell growth inhibition. In kind it is functional.
For another data set, the system named is COLO 205. The data set can be described thus: Antiproliferative activity against human COLO 205 cells assessed as cell growth inhibition. Format: functional.
A further data set deals with HCT-15. In words: Antiproliferative activity against human HCT-15 cells assessed as cell growth inhibition. In kind it is functional.
The subject of the next data set is HT-29. In words: Antiproliferative activity against human HT-29 cells assessed as cell growth inhibition. In kind it is functional.
A further data set has as its system SW-620. The data set can be described thus: Antiproliferative activity against human SW-620 cells assessed as cell growth inhibition. Format: functional.
In the next data set the test system is SNB-75. In words: Antiproliferative activity against human SNB-75 cells assessed as cell growth inhibition. In kind it is functional.
In another data set the test system is Malme-3M. In words: Antiproliferative activity against human Malme-3M cells assessed as cell growth inhibition. In kind it is functional.
In a further data set the test system is M14. The data set can be described thus: Antiproliferative activity against human M14 cells assessed as cell growth inhibition. In kind it is functional.
The subject of a further data set is SK-MEL-28. In words: Antiproliferative activity against human SK-MEL-28 cells assessed as cell growth inhibition. In kind it is functional.
A further data set relates to OVCAR-3. In words: Antiproliferative activity against human OVCAR-3 cells assessed as cell growth inhibition. In kind it is functional.
Another data set has as its system OVCAR-4. The data set can be described thus: Antiproliferative activity against human OVCAR-4 cells assessed as cell growth inhibition. In kind it is functional.
Another data set has as its system 786-0. The data set can be described thus: Antiproliferative activity against human 786-0 cells assessed as cell growth inhibition. In kind it is functional.
For a further data set, the system named is CAKI-1. The data set can be described thus: Antiproliferative activity against human CAKI-1 cells assessed as cell growth inhibition. In kind it is functional.
The next data set relates to RXF 393. In words: Antiproliferative activity against human RXF 393 cells assessed as cell growth inhibition. In kind it is functional.
A further data set relates to SN12C. The data set can be described thus: Antiproliferative activity against human SN12C cells assessed as cell growth inhibition. Format: functional.
In a further data set the test system is PC-3. In words: Antiproliferative activity against human PC-3 cells assessed as cell growth inhibition. In kind it is functional.
In a further data set the test system is DU-145. In words: Antiproliferative activity against human DU-145 cells assessed as cell growth inhibition. Format: functional.
The subject of another data set is MCF7. The data set can be described thus: Antiproliferative activity against human MCF7 cells assessed as cell growth inhibition. Format: functional.
The subject of another data set is MDA-MB-231. In words: Antiproliferative activity against human MDA-MB-231 cells assessed as cell growth inhibition. Format: functional.
Data set [5] concerns Hep 3B2. In words: Antiproliferative activity against human Hep3B cells assessed as cell growth inhibition at 10 uM measured after 48 hrs by MTT assay relative to control. In kind it is functional. Conditions: read-out: GI. (Formazan colour is commonly taken as a measure of viable cells.)
Data set [6] deals with T1, Macrophage colony-stimulating factor 1 receptor. In words: Inhibition of NanoLuc-fused FMS (unknown origin) transfected in HEK293 cells by NanoBRET assay. In kind it is cell-based. Background: Bioluminescence resonance energy transfer reports proximity on the nanometre scale.
Data set [7] has as its target Voltage-gated inwardly rectifying potassium channel KCNH2 (Homo sapiens, UniProt Q12809). The data set can be described thus: Inhibition of fluorescence tracer red binding to human ERG measured after 3 hrs by fluorescence polarization assay. In general terms: In fluorescence polarisation assays a small probe gives low polarisation when free and higher when bound to something large.

The subject of the next data set is HCT-116. In words: Antiproliferative activity against human HCT-116 cells assessed as cell growth inhibition. In kind it is functional.
The test system of the next data set is SF-295. In words: Antiproliferative activity against human SF-295 cells assessed as cell growth inhibition. In kind it is functional.
The test system of the next data set is SF-539. The data set can be described thus: Antiproliferative activity against human SF-539 cells assessed as cell growth inhibition. In kind it is functional.
The next data set relates to LOX IMVI. In words: Antiproliferative activity against human LOX IMVI cells assessed as cell growth inhibition. In kind it is functional.
In another data set the test system is MDA-MB-435. In words: Antiproliferative activity against human MDA-MB-435 cells assessed as cell growth inhibition. Format: functional.
The next data set has as its system Hs-578T. In words: Antiproliferative activity against human Hs-578T cells assessed as cell growth inhibition. Format: functional.
A further data set relates to MDA-MB-468. In words: Antiproliferative activity against human MDA-MB-468 cells assessed as cell growth inhibition. In kind it is functional.
The next data set relates to BMDM. In words: Inhibition of CSF-1-induced C57BL6 mouse BMDM cell growth preincubated for 1 hr followed by CSF-1 addition and measured after 5 hrs by alamar blue assay.

T1 sequence (P07333 whole entry): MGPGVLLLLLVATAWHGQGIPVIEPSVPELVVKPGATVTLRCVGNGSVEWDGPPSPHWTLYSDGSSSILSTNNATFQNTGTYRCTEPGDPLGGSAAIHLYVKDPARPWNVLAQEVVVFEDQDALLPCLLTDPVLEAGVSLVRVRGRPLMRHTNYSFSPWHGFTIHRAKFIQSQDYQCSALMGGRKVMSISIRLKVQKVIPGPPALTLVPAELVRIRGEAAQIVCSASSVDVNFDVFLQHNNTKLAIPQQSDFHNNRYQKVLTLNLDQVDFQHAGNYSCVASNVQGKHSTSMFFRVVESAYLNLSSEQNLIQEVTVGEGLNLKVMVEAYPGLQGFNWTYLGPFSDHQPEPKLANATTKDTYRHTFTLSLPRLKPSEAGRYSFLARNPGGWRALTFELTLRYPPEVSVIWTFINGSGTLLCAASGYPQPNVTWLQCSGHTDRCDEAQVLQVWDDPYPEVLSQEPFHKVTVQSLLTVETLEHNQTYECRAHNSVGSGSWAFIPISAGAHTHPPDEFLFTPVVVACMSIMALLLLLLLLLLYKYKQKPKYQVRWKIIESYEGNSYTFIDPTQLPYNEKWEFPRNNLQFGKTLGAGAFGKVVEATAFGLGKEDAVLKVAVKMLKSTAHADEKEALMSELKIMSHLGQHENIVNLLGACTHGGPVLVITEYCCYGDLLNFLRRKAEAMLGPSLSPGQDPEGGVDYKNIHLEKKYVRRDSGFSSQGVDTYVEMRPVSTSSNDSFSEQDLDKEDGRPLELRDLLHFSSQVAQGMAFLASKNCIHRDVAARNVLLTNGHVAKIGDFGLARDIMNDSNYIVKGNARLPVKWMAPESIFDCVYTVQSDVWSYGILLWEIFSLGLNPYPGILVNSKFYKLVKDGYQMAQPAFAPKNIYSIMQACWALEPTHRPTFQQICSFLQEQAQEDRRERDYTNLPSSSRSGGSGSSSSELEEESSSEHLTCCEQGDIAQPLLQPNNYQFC
Voltage-gated inwardly rectifying potassium channel KCNH2, sequence (Q12809 whole entry): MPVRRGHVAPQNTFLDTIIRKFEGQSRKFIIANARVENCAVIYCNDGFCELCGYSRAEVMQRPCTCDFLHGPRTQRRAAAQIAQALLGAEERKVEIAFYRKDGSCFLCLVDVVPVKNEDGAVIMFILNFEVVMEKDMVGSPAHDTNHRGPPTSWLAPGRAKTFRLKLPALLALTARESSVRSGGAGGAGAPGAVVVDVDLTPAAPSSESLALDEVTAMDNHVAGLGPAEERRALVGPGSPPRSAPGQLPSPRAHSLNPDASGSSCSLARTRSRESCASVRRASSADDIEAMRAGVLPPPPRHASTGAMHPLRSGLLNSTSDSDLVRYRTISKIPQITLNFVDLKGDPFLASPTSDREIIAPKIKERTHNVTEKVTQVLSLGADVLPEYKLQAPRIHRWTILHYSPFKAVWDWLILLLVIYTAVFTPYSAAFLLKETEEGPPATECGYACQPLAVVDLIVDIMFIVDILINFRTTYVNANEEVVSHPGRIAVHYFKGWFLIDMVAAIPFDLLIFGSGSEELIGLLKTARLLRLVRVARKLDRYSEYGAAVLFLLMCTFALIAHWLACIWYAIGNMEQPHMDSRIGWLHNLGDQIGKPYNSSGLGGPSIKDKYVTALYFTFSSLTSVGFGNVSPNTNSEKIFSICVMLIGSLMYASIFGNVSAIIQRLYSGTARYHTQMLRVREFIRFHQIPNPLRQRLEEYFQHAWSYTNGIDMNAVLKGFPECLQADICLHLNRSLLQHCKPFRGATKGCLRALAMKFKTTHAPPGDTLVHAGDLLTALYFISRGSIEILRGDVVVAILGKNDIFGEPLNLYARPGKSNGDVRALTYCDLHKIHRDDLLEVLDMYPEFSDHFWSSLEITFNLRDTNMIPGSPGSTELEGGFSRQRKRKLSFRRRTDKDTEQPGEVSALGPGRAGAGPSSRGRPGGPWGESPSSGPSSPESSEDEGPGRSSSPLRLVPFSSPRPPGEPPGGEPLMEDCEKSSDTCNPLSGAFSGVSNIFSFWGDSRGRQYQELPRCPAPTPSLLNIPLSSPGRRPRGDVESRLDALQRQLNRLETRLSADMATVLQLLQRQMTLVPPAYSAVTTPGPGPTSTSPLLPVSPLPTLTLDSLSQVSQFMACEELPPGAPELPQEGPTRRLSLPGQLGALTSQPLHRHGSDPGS
Description for HepG2: Antiproliferative activity against human HepG2 cells assessed as cell growth inhibition measured after 48 hrs by MTT assay

`CC(C)NC(=O)c1cc(-c2ccc(NC(=O)Nc3ccc(N4CCNCC4)c(C(F)(F)F)c3)cc2)nc2cccnc12`: the IC50 at 48 h in data set [1] came out at 18600 nM; in [2] it was 9100 nM. In addition, the IC50 in data set [3] (read-out: IC50) came to 852 nM; in the data set with HepG2 it was 920 nM; with Hep 3B2 [4], 850 nM.

As a reminder, the GI50 is the concentration giving 50% growth inhibition. The term TGI denotes the concentration at which net growth stops. On to `CNC(=O)c1cc(Oc2ccc(NC(=O)Nc3ccc(Cl)c(C(F)(F)F)c3)cc2)ccn1` [SORAFENIB], for which the GI50 came to 2000 nM with CCRF-CEM; 3160 nM with K562; 3160 nM in the data set with MOLT-4; 3160 nM with SR; 3160 nM in the data set on A549; 2510 nM in the data set with NCI-H460. For the same compound, the GI50 in the data set with COLO 205 came to 2000 nM; in the data set with HCT-15, 2510 nM; in the data set with HT-29 it was 2000 nM; in the data set on SW-620, 2510 nM; in the data set on SNB-75 it was 3160 nM; in the data set on Malme-3M, 2000 nM. Also, the GI50 with M14 amounted to 2000 nM; with SK-MEL-28, 2510 nM; in the data set with OVCAR-3, 3160 nM; with OVCAR-4, 3160 nM; with 786-0, 3160 nM; with CAKI-1, 3160 nM. The GI50 with RXF 393 was found to be 3160 nM; with SN12C it was 2510 nM; with PC-3, 2000 nM; with DU-145 it was 3160 nM; in the data set on MCF7, 2510 nM; with MDA-MB-231 it was 1260 nM. Moreover, the TGI turned out to be 100000 nM with MOLT-4 and 7940 nM in the data set with MCF7. In addition, the inhibition of growth at 10 µM in the data set on Hep 3B2 [5] is 75%. In addition, the IC50 at 48 h in data set [2] came out at 8300 nM.

On to `CC(C)NC(=O)c1cc(-c2ccc(NC(=O)Nc3ccc(N4CCOCC4)c(C(F)(F)F)c3)cc2)nc2cccnc12`, for which the IC50 in [3] (read-out: IC50) is 901 nM.

For `CNC(=O)c1cc(-c2ccc(NC(=O)Nc3ccc(N4CCOCC4)c(C(F)(F)F)c3)cc2)nc2cccnc12`, the results for the IC50 at 48 h in [1] and in [2] were over 20000 nM and 11600 nM, respectively. The IC50 came to 134 nM in [3] (read-out: IC50), 1270 nM in the data set on HepG2 and 1890 nM with Hep 3B2 [4].

In the case of `C=CC(=O)N1CCN(c2ccc(NC(=O)Nc3ccc(-c4cc(C(=O)NC(C)C)c5ncccc5n4)cc3)cc2C(F)(F)F)CC1`, the IC50 at 48 h was determined as 15800 nM in data set [1] and 8100 nM in [2]. Moreover, the IC50 came out at 788 nM in [3] (read-out: IC50), 870 nM in the data set with HepG2 and 810 nM with Hep 3B2 [4].

On to `CC(C)NC(=O)c1cc(-c2ccc(NC(=O)Nc3ccc(F)c(C(F)(F)F)c3)cc2)nc2cccnc12`, for which the inhibition of growth at 10 µM with Hep 3B2 [5] was 84.8%.

Take `CC(C)NC(=O)c1cc(-c2ccc(NC(=O)Nc3ccc(N4CCN(C)CC4)c(C(F)(F)F)c3)cc2)nc2cccnc12`: the IC50 at 48 h in data set [1] is 18300 nM; in data set [2] it was 8000 nM. Further, the IC50 in data set [3] (read-out: IC50) is 797 nM; in data set [3] (read-out: pIC50 (converted)) it was 813 nM; with HepG2, 800 nM; with Hep 3B2 [4] it was 1760 nM.

For the compound `CNC(=O)c1cc(-c2ccc(NC(=O)Nc3ccc(N4CCNCC4)c(C(F)(F)F)c3)cc2)nc2cccnc12`, the IC50 in data set [3] (read-out: IC50) is 743 nM.

Turning to `CNC(=O)c1cc(-c2ccc(NC(=O)Nc3ccc(N4CCN(C)CC4)c(C(F)(F)F)c3)cc2)nc2cccnc12`, the IC50 in data set [6] worked out at 563 nM; in data set [7] it was 95900 nM.

In the case of `C=CC(=O)N1CCN(c2ccc(NC(=O)Nc3ccc(-c4cc(C(=O)NC)c5ncccc5n4)cc3)cc2C(F)(F)F)CC1`, the IC50 in data set [3] (read-out: IC50) came to 196 nM.

Regarding `CCN1CCN(c2ccc(NC(=O)Nc3ccc(-c4cc(C(=O)NC)c5ncccc5n4)cc3)cc2C(F)(F)F)CC1`, the GI50 with CCRF-CEM was 460 nM; with K562, 660 nM; with MOLT-4 it was 690 nM; in the data set on SR, 670 nM; with A549, 470 nM; in the data set on NCI-H460, 660 nM. In addition, the GI50 with HCT-15 worked out at 330 nM; with HT-29 it was 530 nM; with SW-620, 310 nM; with SF-539, 2300 nM; with SNB-75, 840 nM; in the data set with LOX IMVI, 670 nM. Also, the GI50 was determined as 290 nM with Malme-3M; 400 nM in the data set with M14; 270 nM with MDA-MB-435; 320 nM in the data set on SK-MEL-28; 300 nM in the data set with 786-0; 500 nM with RXF 393. The GI50 with MCF7 was determined as 290 nM. The TGI came to 1270 nM with CCRF-CEM; 18000 nM with K562; 18000 nM in the data set with MOLT-4; 18000 nM with SR; 13000 nM with A549; 2930 nM with NCI-H460. The TGI was 14200 nM with COLO 205; 4830 nM in the data set with HCT-116; 700 nM in the data set on HCT-15; 2110 nM with HT-29; 620 nM in the data set on SW-620; 4470 nM in the data set on SF-295. Also, the TGI with SF-539 worked out at 4570 nM; in the data set with SNB-75 it was 3820 nM; in the data set on LOX IMVI, 2660 nM; in the data set on Malme-3M it was 530 nM; with M14, 1050 nM; with MDA-MB-435, 560 nM. Also, the TGI in the data set with SK-MEL-28 stood at 580 nM; with OVCAR-3 it was 5060 nM; with OVCAR-4 it was 5630 nM; in the data set with 786-0 it was 580 nM; in the data set with CAKI-1, 5600 nM; in the data set with RXF 393, 1660 nM. Besides, the TGI was 5300 nM in the data set on SN12C; 6030 nM in the data set with PC-3; 4900 nM in the data set with DU-145; 610 nM in the data set with MCF7; 5250 nM in the data set with MDA-MB-231; 6880 nM in the data set with Hs-578T. For the same compound, the TGI in the data set with MDA-MB-468 amounted to 5030 nM. The IC50 at 48 h came out at 16700 nM in [1] and 8800 nM in data set [2]. Further, the IC50 is 1350 nM in data set [6], 167 nM in the data set with BMDM and 83400 nM in data set [7].
